The target of one test is μ-receptor (Homo sapiens (Human), UniProt P35372). Nature of the test: Receptor binding, competitive displacement of [3H]DAMGO. The following applies: 0.25 nM [3H]DAMGO, CHO cell membrane protein, 60 min at 25° C. The procedure:
The Ki (binding affinity) for μ-receptor was determined with a previously described method using a competitive displacement assay (Neumeyer et al., J. Med. Chem., v. 46, p. 5162-5170, 2003). Membrane protein from CHO (Chinese Hamster Ovarian) cells that stably expressed one type of the cloned human opioid receptor were incubated with 12 different concentrations of the compound in the presence of 0.25 nM [3H]DAMGO, 0.2 nM [3H]naltrindole or 1 nM [3H]U69,593 in a final volume of 1 mL of 50 mM Tris-HCl, pH 7.5 at 25° C. Incubation times of 60 min were used for [3H]DAMGO and [3H]U69,593. Because of a slower association of [3H]naltrindole with the receptor, a 3 h incubation was used with this radioligand. Samples incubated with [3H]naltrindole also contained 10 mM MgCl2 and 0.5 mM phenylmethylsulfonyl fluoride. Nonspecific binding was measured by inclusion of 10 μM naloxone. The binding was terminated by filtering the samples through Schleicher & Schuell No. 32 glass fiber filters using a Brandel 48-well cell harvester. The filters were subsequently washed three times with 3 mL of cold 50 mM Tris-HCl, pH 7.5, and were counted in 2 mL Ecoscint A scintillation fluid. For [3H]naltrindole and [3H]U69,593 binding, the filters were soaked in 0.1% polyethylenimine for at least 60 min before use. IC50 values will be calculated by least squares fit to a logarithm-probit analysis. Ki values of unlabelled compounds were calculated from the equation Ki=(IC50)/1+S where S=(concentration of radioligand)/(Kd of radioligand) (Cheng and Prusoff, Biochemical Pharmacology, v. 22, p. 3099-3108, 1973).
On the technique in general: Loss of bound radioactivity is the signal in a displacement assay; it reports binding, not function.

A further test has as its target human μ opioid receptor (Homo sapiens (Human), UniProt P35372). Nature of the test: Functional activity ([35S]GTPγS binding). The test is classed as biochemical. The following applies: [35S]GTPγS 0.080 nM, CHO cell membranes, 60 min at 30° C., filtration. The procedure: The [^35S]GTPγS assay measures the functional properties of a compound by quantifying the level of G-protein activation following agonist binding in studies using stably transfected cells, and is considered to be a measure of the efficacy of a compound. Membranes from CHO (Chinese Hamster Ovary) cells that stably expressed one type of the cloned human opioid receptor human were used in the experiments. In a final volume of 0.5 mL, 12 different concentrations of each test compound were incubated with 7.5 μg of CHO cell membranes that stably expressed the human p opioid receptor. The assay buffer consisted of 50 mM Tris-HCl, pH 7.4, 3 mM MgCl2, 0.2 mM EGTA, 3 μM GDP, and 100 mM NaCl. The final concentration of [35S]GTPγS was 0.080 nM. Nonspecific binding was measured by inclusion of 10 μM GTPγS. Binding was initiated by the addition of the membranes. After an incubation of 60 min at 30° C., the samples were filtered through Schleicher & Schuell No. 32 glass fiber filters. The filters were washed three times with cold 50 mM Tris-HCl, pH 7.5, and were counted in 2 mL of Ecoscint scintillation fluid.
A general note: GTPγS resists hydrolysis and so accumulates on activated G proteins.

The values that follow come from US10604489B2, “Compounds for the treatment of pain” (priority 2018, dated 2020).

Counter-ions that a name gives are not always drawn.

As a reminder, the Ki is the dissociation constant of the complex between target and ligand, obtained from inhibition or displacement. Read a high Ki as a looser hold on the target. A word on the EC50: it is the concentration that produces a half-maximal response.

For `COC1(c2ccnc(C(N)=O)c2)C2CCCC1CN(Cc1cccc(=O)[nH]1)C2` [Compound 120, 4-((1R,5S,9r)-34(6-hydroxypyridin-2-yl)methyl)-9-methoxy-3-azabicyclo[3.3.1]nonan-9-yl)picolinamide hydrochloride], the Ki on μ-receptor was over 5 nM.

`COC1(c2cccc(C(N)=O)c2)C2CCCC1CN(C1CCC1)C2` [Compound 42, 3-((1R,5S,9r)-3-cyclobutyl-9-methoxy-3-azabicyclo[3.3.1]nonan-9-yl)benzamide hydrochloride] had an EC50 at human μ opioid receptor of under 10 nM. The same compound registered a Ki on μ-receptor of under 1 nM.

At μ-receptor, `COC1(c2cc(O)cc(C(N)=O)c2)C2CCCC1CN(C)C2` [Compound 52, 3-hydroxy-5-((1R,5S,9r)-9-methoxy-3-methyl-3-azabicyclo[3.3.1]nonan-9-yl)benzamide hydrochloride] showed a Ki of over 5 nM.

With `COC1(c2cccc(C(N)=O)c2)C2CCCC1CN(C[C@@H]1[C@@H]3COC[C@@H]31)C2` (some centres unmarked) [Compound 175], the EC50 at human μ opioid receptor was in the range of 10 to 75 nM. Besides, the Ki at μ-receptor is under 1 nM.

The compound `COC1(c2ccc(C(N)=O)s2)C2CCCC1CN(CCN1CCOC1=O)C2` [Compound 98, 5-((1R,5S,9r)-9-methoxy-3-(2-(2-oxooxazolidin-3-yl)ethyl)-3-azabicyclo[3.3.1]nonan-9-yl)thiophene-2-carboxamide (S)-2-hydroxysuccinate] had an EC50 on human μ opioid receptor of 10 to 75 nM. For the same compound, the Ki on μ-receptor is over 5 nM.

At human μ opioid receptor, `COC1(c2cccc(C(N)=O)c2)C2CCCC1CN(CC1(O)Cc3ccccc3C1)C2` [Compound 58, 3-((1R,5S,9r)-3-((2-hydroxy-2,3-dihydro-1H-inden-2-yl)methyl)-9-methoxy-3-azabicyclo[3.3.1]nonan-9-yl)benzamide hydrochloride] came in with a concentration for a half-maximal effect (EC50) of under 10 nM. On μ-receptor, the Ki was under 1 nM.

Turning to `CCOC1(c2cccc(C(N)=O)c2)C2CCCC1CN(CC1CC1)C2` [Compound 30, 3-((1R,5S,9r)-3-(cyclopropylmethyl)-9-ethoxy-3-azabicyclo[3.3.1]nonan-9-yl)benzamide hydrochloride], at human μ opioid receptor, the EC50 was under 10 nM. At μ-receptor, this compound gave a Ki of under 1 nM.

Regarding `COC1(c2ccnc(C(N)=O)c2)C2CCCC1CN(Cc1ccno1)C2` [Compound 124, 4-((1R,5S,9r)-3-(isoxazol-5-ylmethyl)-9-methoxy-3-azabicyclo[3.3.1]nonan-9-yl)picolinamide hydrochloride], the EC50 at human μ opioid receptor was over 75 nM. Also, the Ki on μ-receptor is over 5 nM.

The compound `CCCN1CC2CCCC(C1)C2(OC)c1cccc(C(N)=O)c1` [Compound 47, 3-((1R,5S,9r)-9-methoxy-3-propyl-3-azabicyclo[3.3.1]nonan-9-yl)benzamide hydrochloride] gave an EC50 at human μ opioid receptor of under 10 nM. At μ-receptor, this compound registered a Ki of under 1 nM.

Take `COC1(c2ccc(C(N)=O)s2)C2CCCC1CN(CCN1CCCS1(=O)=O)C2` [Compound 97, 5-((1R,5S,9r)-3-(2-(1,1-dioxidoisothiazolidin-2-yl)ethyl)-9-methoxy-3-azabicyclo[3.3.1]nonan-9-yl)thiophene-2-carboxamide (S)-2-hydroxysuccinate]: the EC50 on human μ opioid receptor lay within 10 to 75 nM. For the same compound, the Ki at μ-receptor was under 1 nM.

In the case of `COC1(c2cc(C(N)=O)cs2)C2CCCC1CN(CC1CC1)C2` [Compound 59, 5-((1R,5S,9r)-3-(cyclopropylmethyl)-9-methoxy-3-azabicyclo[3.3.1]nonan-9-yl)thiophene-3-carboxamide hydrochloride], the Ki on μ-receptor lay within 1 to 5 nM.

As to `COC1(c2ccnc(C(N)=O)c2)C2CCCC1CN(Cc1cnnn1C)C2` [Compound 125, 4-((1R,5S,9r)-9-methoxy-3-((1-methyl-1H-1,2,3-triazol-5-yl)methyl)-3-azabicyclo[3.3.1]nonan-9-yl)picolinamide hydrochloride], on μ-receptor, the Ki was over 5 nM.

In turn, `COC1(c2ccc(C(N)=O)cc2)C2CCCC1CN(CC1CC1)C2` [Compound 31, 4-((1R,5S,9r)-3-(cyclopropylmethyl)-9-methoxy-3-azabicyclo[3.3.1]nonan-9-yl)benzamide hydrochloride] registered a Ki at μ-receptor of over 5 nM.

Regarding `COC1(c2ccnc(C(N)=O)c2)C2CCCC1CN([C@H]1CC[C@H]1c1ccccc1)C2` (stereo partly drawn) [Compound 116, 4-((1R,5S,9s)-9-methoxy-3-((1S,2S)-2-phenylcyclobutyl)-3-azabicyclo[3.3.1]nonan-9-yl)picolinamide (S)-2-hydroxysuccinate], the Ki on μ-receptor was over 5 nM.

At μ-receptor, `COC1(c2ccnc(C(N)=O)c2)C2CCCC1CN(CC1(F)CCOCC1)C2` [Compound 15, 4-((1R,5S,9r)-34(4-fluorotetrahydro-2H-pyran-4-yl)methyl)-9-methoxy-3-azabicyclo[3.3.1]nonan-9-yl)picolinamide hydrochloride] yielded a Ki of over 5 nM.

Regarding `COC1(c2cccc(C(N)=O)c2)C2CCCC1CN(C(C)C)C2` [Compound 25, 3-((1R,5S,9r)-3-isopropyl-9-methoxy-3-azabicyclo[3.3.1]nonan-9-yl)benzamide hydrochloride], on μ-receptor, the Ki is under 1 nM.

In the case of `COC1(c2ccnc(C(N)=O)c2)C2CCCC1CN(CCS(C)(=O)=O)C2` [Compound 8, 4-((1R,5S,9r)-9-methoxy-3-(2-(methylsufonyl)ethyl)-3-azabicyclo[3.3.1]nonan-9-yl)picolinamide hydrochloride], the Ki at μ-receptor is over 5 nM.

At μ-receptor, `COC1(c2cccc(C(N)=O)c2)C2CCCC1CN(CC(F)(F)F)C2` [Compound 32, 3-((1R,5S,9r)-9-methoxy-3-(2,2,2-trifluoroethyl)-3-azabicyclo[3.3.1]nonan-9-yl)benzamide hydrochloride] showed a Ki of over 5 nM.

Compound `COC1(c2cc(C(N)=O)ccn2)C2CCCC1CN(C)C2` [Compound 44, 2-((1R,5S,9r)-9-methoxy-3-methyl-3-azabicyclo[3.3.1]nonan-9-yl)isonicotinamide hydrochloride] had a Ki on μ-receptor of 1 to 5 nM.

Take `COC1(c2ccnc(C(N)=O)c2)C2CCCC1CN(CC(C)(C)C)C2` [Compound 105, 4-((1R,5S,9r)-9-methoxy-3-neopentyl-3-azabicyclo[3.3.1]nonan-9-yl)picolinamide hydrochloride]: the inhibition constant Ki on μ-receptor is over 5 nM.

In the case of `COC1(c2ccc(F)c(C(N)=O)c2)C2CCCC1CN(C)C2` [Compound 41, 2-fluoro-5-((1R,5S,9r)-9-methoxy-3-methyl-3-azabicyclo[3.3.1]nonan-9-yl)benzamide hydrochloride], the Ki at μ-receptor was over 5 nM.

Take `COC1(c2ccnc(C(N)=O)c2)C2CCCC1CN(C1CN(C(C)=O)C1)C2` [Compound 84, 4-((1R,5S,9r)-3-(1-acetylazetidin-3-yl)-9-methoxy-3-azabicyclo[3.3.1]nonan-9-yl)picolinamide hydrochloride]: the Ki at μ-receptor was over 5 nM.

On to `COC1(c2ccnc(C(N)=O)c2)C2CCCC1CN(Cc1cc3ccccc3[nH]1)C2` [Compound 119, 4-((1R,5S,9r)-3-((1H-indol-2-yl)methyl)-9-methoxy-3-azabicyclo[3.3.1]nonan-9-yl)picolinamide (S)-2-hydroxysuccinate], for which the EC50 at human μ opioid receptor was under 10 nM.

Compound `COC1(c2ccnc(C(N)=O)c2)C2CCCC1CN([C@@H]1CC[C@@H]1c1ccccc1)C2` (stereo partly drawn) [Compound 110, 4-((1R,5S,9R)-9-methoxy-3-((1R,2R)-2-phenylcyclobutyl)-3-azabicyclo[3.3.1]nonan-9-yl)picolinamide hydrochloride] had a Ki on μ-receptor of over 5 nM.

`COC1(c2ccnc(C(N)=O)c2)C2CCCC1CN(CCN1CCOC1=O)C2` [Compound 80, 4-((1R,5S,9r)-9-methoxy-3-(2-(2-oxooxazolidin-3-yl)ethyl)-3-azabicyclo[3.3.1]nonan-9-yl)picolinamide hydrochloride] came in with a Ki at μ-receptor of over 5 nM.

Take `COC1(c2cccc(C(N)=O)n2)C2CCCC1CN(C)C2` [Compound 33, 6-((1R,5S,9r)-9-methoxy-3-methyl-3-azabicyclo[3.3.1]nonan-9-yl)picolinamide hydrochloride]: the Ki on μ-receptor was over 5 nM.

`COC1(c2cncc(C(N)=O)c2)C2CCCC1CN(CC1CC1)C2` [Compound 28, 5-((1R,5S,9r)-3-(cyclopropylmethyl)-9-methoxy-3-azabicyclo[3.3.1]nonan-9-yl)nicotinamide hydrochloride] showed a Ki on μ-receptor of over 5 nM.
